Laboratory results taken from patent US20100298141A1, “SUBSTITUTED PYRIDINE N-OXIDE HERBICIDES” (E. I. DU PONT DE NEMOURS AND COMPANY, priority 2007, published 2010).

What was measured:
crabgrass = assay: Test A pre-/postemergence greenhouse test; assay type: in vivo, Digitaria sanguinalis; settings: for Plant response rating, Crabgrass, Large: 0 to 100 scale where 0 is no effect and 100 is complete control; for Crabgrass, Large plant response rating: 0 to 100 scale
Outline: (§1)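 Untreated controls served as the reference for visual injury ratings taken about ten days after spraying. The non-phytotoxic solvent/surfactant formulation was applied preemergence to seeded loam and sand and postemergence to plants two to ten cm high.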

umbrella sedge = assay: Test C flooded paddy test; assay type: in vivo, Cyperus difformis; settings: Flood
Outline: (§2)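 Greenhouse pots flooded to 3 cm above soil at time of treatment received compound via the water, which stayed at that level.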

Goosegrass = assay: Test C pre-/postemergence test; assay type: in vivo, Eleusin indica
Outline: (§3)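 Test chemicals were formulated with surfactant in a non-phytotoxic solvent and sprayed both on freshly planted seeds (preemergence) and on 1- to 4-leaf plants of 2–18 cm (postemergence). Flooded-paddy pots received compound directly into 3 cm of standing water, maintained for the test.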

Italian ryegrass = assay: Test C pre-/postemergence test; assay type: in vivo, Lolium multiflorum
Outline: as §3

wheat = assay: Test C pre-/postemergence test; assay type: in vivo, Triticum aestivum
Outline: as §3

blackgrass = assay: Test C pre-/postemergence test; assay type: in vivo, Alopecurus myosuroides
Outline: as §3

duck salad = assay: Test C flooded paddy test; assay type: in vivo, Heteranthera limosa; settings: Flood
Outline: as §2

morningglory = assay: Test A pre-/postemergence greenhouse test; assay type: in vivo, Ipomoea spp.; settings: for Plant response rating, Morningglory: 0 to 100 scale where 0 is no effect and 100 is complete control; for Morningglory plant response rating: 0 to 100 scale
Outline: as §1

common ragweed = assay: Test C pre-/postemergence test; assay type: in vivo, Ambrosia elation
Outline: as §3

redroot pigweed = assay: Test A pre-/postemergence greenhouse test; assay type: in vivo, Amaranthus retroflexus; settings: for Plant response rating, Pigweed: 0 to 100 scale where 0 is no effect and 100 is complete control; for Pigweed plant response rating: 0 to 100 scale
Outline: as §1

green foxtail = assay: Test C pre-/postemergence test; assay type: in vivo, Setaria viridis
Outline: as §3

wild oat = assay: Test C pre-/postemergence test; assay type: in vivo, Avena fatua
Outline: as §3

yellow nutsedge = assay: Test C pre-/postemergence test; assay type: in vivo, Cyperus esculentus
Outline: as §3

woolly cupgrass = assay: Test C pre-/postemergence test; assay type: in vivo, Eriochloa villosa
Outline: as §3

[1] = test system: common (oilseed) sunflower; assay: Test C pre-/postemergence test; assay type: in vivo, Helianthus annuus
Outline: as §3

eastern black nightshade = assay: Test C pre-/postemergence test; assay type: in vivo, Solanum ptycanthum
Outline: as §3

corn = assay: Test C pre-/postemergence test; assay type: in vivo, Zea mays
Outline: as §3

[2] = Postemergence, 500 g ai/ha, 0 is no effect, 100 is complete control
[3] = Preemergence, 125 g ai/ha, 0 no effect, 100 complete control
[4] = 62 g ai/ha, scale 0 to 100 (0 no effect, 100 complete control)
[5] = 250 g ai/ha, scale 0 to 100, 0 no effect, 100 complete control, 13 to 15 days
[6] = 62 g ai/ha, Preemergence, scale 0 to 100
[7] = 125 g ai/ha, preemergence, scale 0 (no effect) to 100 (complete control)
[8] = Preemergence, 31 g ai/ha, scale 0 to 100 (0 no effect, 100 complete control)
[9] = preemergence, 250 g ai/ha, scale 0 (no effect) to 100 (complete control)

CC(Oc1c(C[S+]([O-])c2cccc[n+]2[O-])c(C(F)(F)F)nn1C)C(F)(F)F (stereo not shown) [Compound 77]
40: Wheat plant response rating (wheat; [6]) | Plant response rating, Corn (corn; [8])
50: Plant response rating, Nutsedge, Yellow (yellow nutsedge; [8])
98: Ryegrass, Italian plant response rating (Italian ryegrass; [6]) | Cupgrass, Woolly plant response rating (woolly cupgrass; [6]) | Sunflower plant response rating [1, 9]
60: Plant response rating, Crabgrass, Large (crabgrass; Postemergence, 125 g ai/ha)
75: Plant response rating, Ducksalad (duck salad; [4])
95: Plant response rating, Goosegrass (Goosegrass; [8]) | Wheat plant response rating (wheat; [9]) | Oat, Wild plant response rating (wild oat; [9]) | Corn plant response rating (corn; [6])
20: Plant response rating, Wheat (wheat; [8])
100: Plant response rating, Crabgrass, Large (crabgrass; Preemergence, 500 g ai/ha) | Plant response rating, Sedge, Umbrella (umbrella sedge; [4]) | Plant response rating, Sedge, Umbrella (umbrella sedge; [5]) | Goosegrass plant response rating (Goosegrass; [6]) | Goosegrass plant response rating (Goosegrass; [7]) | Goosegrass plant response rating (Goosegrass; [9]) | Ryegrass, Italian plant response rating (Italian ryegrass; [7]) | Ryegrass, Italian plant response rating (Italian ryegrass; [9]) | Blackgrass plant response rating (blackgrass; [6]) | Blackgrass plant response rating (blackgrass; [7]) | Plant response rating, Blackgrass (blackgrass; [8]) | Blackgrass plant response rating (blackgrass; [9]) | Plant response rating, Ducksalad (duck salad; [5]) | Plant response rating, Morningglory (morningglory; Preemergence, 500 g ai/ha) | Ragweed plant response rating (common ragweed; [6]) | Ragweed plant response rating (common ragweed; [7]) | Plant response rating, Ragweed (common ragweed; [8]) | Ragweed plant response rating (common ragweed; [9]) | Plant response rating, Pigweed (redroot pigweed; Preemergence, 500 g ai/ha) | Foxtail, Green plant response rating (green foxtail; [7]) | Foxtail, Green plant response rating (green foxtail; [9]) | Nutsedge, Yellow plant response rating (yellow nutsedge; [6]) | Nutsedge, Yellow plant response rating (yellow nutsedge; [7]) | Nutsedge, Yellow plant response rating (yellow nutsedge; [9]) | Cupgrass, Woolly plant response rating (woolly cupgrass; [7]) | Cupgrass, Woolly plant response rating (woolly cupgrass; [9]) | Nightshade plant response rating (eastern black nightshade; [6]) | Nightshade plant response rating (eastern black nightshade; [7]) | Plant response rating, Nightshade (eastern black nightshade; [8]) | Nightshade plant response rating (eastern black nightshade; [9]) | Corn plant response rating (corn; [7]) | Corn plant response rating (corn; [9])
70: Plant response rating, Morningglory (morningglory; Postemergence, 125 g ai/ha) | Morningglory plant response rating (morningglory; [3]) | Plant response rating, Pigweed (redroot pigweed; Postemergence, 125 g ai/ha) | Pigweed plant response rating (redroot pigweed; [3]) | Oat, Wild plant response rating (wild oat; [6])
85: Foxtail, Green plant response rating (green foxtail; [6]) | Plant response rating, Foxtail, Green (green foxtail; [8])
90: Crabgrass, Large plant response rating (crabgrass; [2]) | Morningglory plant response rating (morningglory; [2]) | Oat, Wild plant response rating (wild oat; [7])
35: Plant response rating, Oat, Wild (wild oat; [8])
80: Crabgrass, Large plant response rating (crabgrass; [3]) | Plant response rating, Ryegrass, Italian (Italian ryegrass; [8]) | Wheat plant response rating (wheat; [7]) | Pigweed plant response rating (redroot pigweed; [2]) | Plant response rating, Cupgrass, Woolly (woolly cupgrass; [8]) | Sunflower plant response rating [1, 7]
0: Sunflower plant response rating [1, 6] | Plant response rating, Sunflower [1, 8]
